Test results as given in patent US8426369B2, “Prevention and treatment of colon cancer” (Rutgers, The State University of New Jersey, priority 2006, dated 2013).

Columns and labels:
HT-29 cells = test: [3H]Thymidine incorporation cell proliferation assay in HT-29 cells; format: cell-based, human; details: 30 μM, three days
Protocol: The stilbenes illustrated in FIG. 4 were also used to investigate their ability to inhibit cell proliferation in HT-29 cell line. In this experiment, HT-29 cells (20,000 cells/well in 24-well plate) were treated with the respective stilbenes (each used either at 30 μM or 3 μM) in 10% FBS/DMEM for three days.
(§1) Human colon carcinoma cell lines HT-29 was obtained from the American Type Culture Collection (Manassas, Va.). The cells were maintained in Dulbecco's modification of Eagle's medium (DMEM) supplemented with 10% FBS and 1% penicillin/streptomycin at 37° C. and 5% CO2. The cytokine mixture, consisting of 10 ng/ml of TNF-α, IFN-γ and LPS, was used to induce iNOS and COX-2, unless otherwise mentioned. The cells were treated with the test compound either alone or in combination with cytokines for different time intervals and harvested for protein or RNA.
HT-29 cells were plated at a density of 20,000 cells/well in a 24 well plate and treated with varying concentrations of pterostilbene for a period of 1, 2 or 3 days at 37° C. Before harvest, the cells were incubated with 1 μCi [^3H]thymidine for 4 h at 37° C. and were washed with phosphate buffered saline. The cells were precipitated with cold 10% trichloroacetic acid for 10 min and solubilized with 0.5 ml solubilization buffer (0.2 M NaOH, 40 μg/ml salmon sperm DNA) for 2 h at room temperature. The lysate was transferred to 5 ml Ecolume and the [3H]thymidine incorporated into the DNA of HT-29 cells was determined using a scintillation spectrometer (Beckman Coulter, Fullerton, Calif.).

iNOS = test: Cytokine-induced iNOS protein expression in HT-29 cells (Western blot); format: cell-based, human; details: stilbene analogs each at 10 μM, 15 hours, HT-29, Western blot
Protocol: HT-29 human colon adenocarcinoma cells were grown in 10% FBC/DMEM. Cells (about 600,000 cells/well) were plated in 6-well plate and treated with stilbene analogs shown in FIG. 4 (each at 10 μM) for 15 hours together with cytokine mixture comprising TNF-a, IFN0g, and LPS (each at 10 ng/ml). Cell lysates were prepared and subjected to Western Blot analysis.
as §1
The cell culture conditions and the reagents used in this example were described in Example 32. Whole cell extracts were collected after the various treatments and analyzed by western blotting. The protein samples were separated on 4-15% SDS-PAGE gels (Biorad, Hercules, Calif.) followed by transfer to a polyvinylidene fluoride membrane. The membranes were blocked with 5% milk in Tris buffer for 1 h and then incubated with the appropriate primary antibody solutions overnight at 4° C. The membranes were washed with Tris buffer, and incubated with horseradish peroxidase conjugated secondary antibody solutions for 1 h at room temperature.
The protein bands were visualized using a chemiluminescence based kit from Amersham Biosciences (Buckinghamshire, UK). The primary antibodies against iNOS, COX-2, IκBα, cyclin D1, c-myc (Santa Cruz Bio-technology, Santa Cruz, Calif.), phospho-STAT3, phospho-Erk1/2, phospho-JNK1/2, phospho-p38, phospho-Akt, phospho-ATF2, phospho-Elk1, PARP (Cell Signaling Technology Inc., Beverly, Mass.) and actin (Sigma, St. Louis, Mo.) and secondary antibodies (Santa Cruz Biotechnology, Santa Cruz, Calif.) were used for probing the abundance of the target protein in the samples.

[1] = system: AOM-induced rat colon carcinogenesis; details: 100 ppm; cited from earlier work
AOM-induced colonic ACF = details: F344 rats; L-N6-(1-iminoethyl)lysine tetrazoleamide at 100 ppm; cited from earlier work
[2] = system: colorectal aberrant crypt foci (ACF); details: rats; cited from earlier work

Compound	proliferation of HT-29 cells (HT-29 cells)	AOM-induced colonic ACF (AOM-induced colonic ACF)	other results
COc1ccc(/C=C/c2cc(OC)cc(OC)c2)cc1 [ARS-8, (E)-1,3-dimethoxy-5-(4-methoxystyryl)benzene]	inhibited proliferation	–	–
COc1ccc(/C=C\c2cc(OC)cc(OC)c2)cc1 [ARS-9, (Z)-1,3-dimethoxy-5-(4-methoxystyryl)benzene]	inhibited proliferation	–	induction of iNOS protein expression by cytokine mixture (iNOS): inhibited
C[C@H]1CC(=N)N[C@@H]2[C@H](Cl)[C@@H]21.Cl [ONO-1714, [1S,5S,6R,7R]-7-chloro-3-imino-5-methyl-2 azabicyclo[4.1.0]heptane hydrochloride]	–	–	AOM-induced rat colon carcinogenesis [1]: inhibitory effect
N=C(N)SCCc1ccc(CCSC(=N)N)cc1 [PBIT, S,S′-1,4-phenylene-bis(1,2-ethanediyl)bis-isothiourea]	–	inhibitory effects	–
Oc1ccc(C=Cc2cc(O)cc(O)c2)cc1 [Resveratrol]	–	–	growth of colorectal aberrant crypt foci (ACF) [2]: reduce the growth
L-N^6-(1-iminoethyl)lysine tetrazoleamide	–	significantly suppress	–
